Measurements taken from patent US20080206219A1, “Novel Indications for Transforming Growth Factor-Beta Regulators” (THE REGENCTS OF THE UNIVERSITY OF CALIFORNIA, priority 2003, published 2008).
“Also recorded” adds a separate entry of the source.

How the values were obtained:
[1] = system: gelatinolytic activity in Collα1(I)r/r skin; assay: Substrate conversion assay (DQ-gelatin) on skin lysates; type: biochemical, mice; settings: inhibitor at 4 mM
Experimental: Shaved back skin pieces from 5-8 week old mice were pulverized in liquid N2 and solubilized in 500 μl buffer (0.25 M sucrose, 5 mM Tris, pH 7.5, protease Inhibitor cocktail mix without EDTA (Roche), 0.25 mg/ml Pefablock (Roche), 0.01 mg/ml Aprotinin (Sigma-Aldrich) using a 2 ml tissue grinder (Fisher) and centrifuged at 4° C. 800×g for 15-min. Supernatants were centrifuged for 1-hr at 100,000×g at 4° C. Supernatants were stored at −80° C., pellets were resuspended in 100 μl solubilization buffer, homogenized by sonication at 4° C., and stored at −80° C. Protein concentration was determined with the BioRad DC Protein assay reagent according to manufacturers instructions (BioRad). Prior to assay, lysate buffers were exchanged using Micro Bio-spin chromatography columns (Bio-gelP-6; BioRad) to 10 mM Tris pH 7.5 according to the manufacturers specifications. […] Reactions were incubated up to 5-hr at 37° C. and fluorescence measured (excitation 485 nm, emission 530 nm) every 3-min on a Microplate Spectrofluorometer (SpectraMax Gemini EM, Molecular Devices) and quantified using SoftMax Pro 4.1 software. […]

MP activity = settings: GM6001 i.p. 100 mg/kg, 20 mg/ml slurry in 4% CMC; cited from earlier work
[2] = system: Collα1(I)+/+ and Collα1(I)r/r mice; assay: Miles assay: Evans blue leakage in ears after mustard oil challenge; type: in vivo; settings: for Evans blue dye leakage into vascular stroma after MO, GM6001-treated versus vehicle-treated mice: GM6001 i.p. 100 mg/kg daily for 3-days before MO challenge
Experimental: Evans blue (EB) dye (30 mg/kg in 100 μl PBS; Sigma-Aldrich) was injected into the tail vein of 7- to 8-week-old mice. In some experiments, after 1-min, 30 μl of 5% mustard oil (Phenyl Isothiocyanate, 98%, Sigma-Aldrich) diluted in mineral oil (Sigma-Aldrich) was applied to the dorsal and ventral surfaces of the ear; the application process was repeated 15 minutes later. Isoflurane anesthesized mice were photographed 30 minutes after injection of EB dye. Anesthesized mice were then cardiac perfused, ears removed, blotted dry and weighed. EB dye was extracted from ears in 1 ml of formamide overnight to 48-hrs at 60° C. and measured spectrophotometrically at 610 nm in a SpectraMax 340™ (Molecular Devices). Data are expressed as mean±SEM. Comparisons of the amounts of dye extravasation were evaluated by Mann-Whitney statistical test with p values less than 0.05 considered significant. In some experiments, 5-min prior to the infusion of EB dye, shaved 5-to 7-week old mice were injected (10 μl) intradermally with one of the following agents at the concentrations shown (VEGF120, R&D Systems; VEGF164, Chemicon; histamine, Calbiochem; serotonin, Sigma-Aldrich) and the appearance of a blue spot monitored for 30 minutes at which time mice were euthanized, cardiac perfused, photographed and the area of skin surrounding the site of injection excised (˜5 mm^2), photographed and EB dye extracted as above. […]
The vascular physiology in a mouse model of human Sc, e.g., Collα1(I)^r/r mice, was studied to determine whether an altered balance between collagen synthesis, accumulation and/or degradation was a rate-limiting factor for efficient vascular physiology prior to histopathologic appearance of Sc disease. The ears of Collα1(I)^r/r versus littermate control (Collα1(I)^+/+) mice were treated with vehicle alone (mineral oil; FIG. 1A) or mustard oil (MO; 5% in mineral oil: right ear), an inflammatory agent that induces plasma leakage, vasodilation of capillaries and inflammation in the skin (FIG. 1A). Evans blue dye (30 mg/kg in 100 μl PBS; Sigma Chemical Co., St. Louis, Mo., USA) was injected into the tail vein of the mice. After 1 minute, 5% mustard oil (Phenyl Isothiocyanate, 98%, Sigma) diluted in mineral oil (Sigma) was applied to the dorsal and ventral surfaces of the ear with a cotton swab; the application process was repeated 15 minutes later. […] Isoflurane anesthesized mice were photographed 30 minutes after injection of Evans blue dye. Anesthesized mice were then cardiac perfused, ears removed, blotted dry, and weighed. The Evans blue dye was extracted from the ears with 1 ml of formamide overnight at 60° C. and measured spectrophotometrically at 610 nm in a SpectraMax 340™ (Molecular Devices). Data are expressed as mean±SEM. Comparisons of the amounts of dye extravasation were evaluated by the Fisher's t test with p values less than 0.05 considered significant.
Vascular permeability (VP) responses in control and Collα1(I)^r/r mice treated with a broad spectrum synthetic metalloproteinase inhibitor (MPI), e.g., GM6001 were examined. GM6001 (N-[(2R)-2(hydroxyamidocarbonylmethyl)-4-methylpantanoyl]-L-tryptophan ethylamide), a broad, class-specific metalloproteinase inhibitor (Chemicon, Temecula Calif.), was administered daily i.p. at 100 mg/kg body weight as a 20 mg/ml slurry in 4% carboxymethylcellulose in 0.9% PBS daily for 3-days. Controls were treated with a daily injection of 4% carboxymethylcellulose in PBS. The animals were then subject to cutaneous challenge with MO and qualitative and quantitative assessment of Evans blue dye leakage into vascular stroma (FIG. 5A).

TGFβ1 = assay: IP-Western of mature dimeric TGFβ1 in tissue lysates of treated mice; type: in vivo; settings: lysates from Collα1(I)+/+ and Collα1(I)r/r mice treated with GM6001
Experimental: After incubation with protein agarose G or A beads (Roche) beads for an additional hour at 4° C., lysates bound to agarose beads were washed three times with HNTG buffer and bound proteins were eluted by boiling in 1× reduced SDS_PAGE sample buffer for 5-min and centrifuged at 13,000 rpm for 10-min. Tissue lysates (20 μg for LAP) or eluted immunoprecipitated complexes were separated by electrophoresis on 10% SDS-polyacrylamine gels, and transferred to nitrocellulous membranes overnight at 4° C. […] Membranes were then washed and developed by using an enhanced chemiluminescence kit (ECL, Amersham Biosciences). Biotinylated-LAP antibodies (R&D System BAF246, 1:1000), biotinylated anti-TGF-β 1 antibodies (R&D System BAF240, 1:1000) and antibodies to MMP14 (Oncogene Sciences 1M397, 1:1,000; Chemicon AB8104, 1:1000 were used for detection on membranes. For loading control in LAP western analysis, rat monoclonal antibody (AbCam YL1/2, 1:5,000) against o-tubulin and goat anti-rat-HRP (Pierce, 1:2000) antibodies were used.

[3] = control versus Colα1(I)r/r mice +/- mustard oil, p<0.03

SMILES	gelatinolytic activity in skin lysate [1]	in vivo MP activity (MP activity)	Evans blue dye leakage into vascular stroma after MO, GM6001-treated versus vehicle-treated mice ([2]; Collα1(I)r/r mice)	Evans blue dye leakage into vascular stroma after MO, GM6001-treated versus vehicle-treated mice ([2]; control Collα1(I)+/+ mice)	effect of GM6001, fold increase (FIG. 5) [2, 3] [fold]	effect of GM6001, increase in % (FIG. 5) [2, 3] [%]	level of ~25 kDa dimeric mature form of TGFβ1 in tissue lysates (TGFβ1)
c1cnc2c(c1)ccc1cccnc12 [1,10 phenanthroline]	completely inhibited	–	–	–	–	–	–
CNC(=O)[C@H](Cc1c[nH]c2ccccc12)NC(=O)[C@@H](CC(=O)NO)CC(C)C [GM6001]	–	inhibit in vivo MP activity	significantly above vehicle-treated; also recorded: restored the appropriate acute vascular responses; also recorded: restores acute vascular responses	higher than that observed in MO-treated control mice receiving vehicle alone; also recorded: even more susceptible to MO-induced EB leakage; also recorded: hyper-sensitive to vascular leakage	1.8	54	markedly decreased; also recorded: reduced
